A melting point compilation (Tetko et al.)

For `O=C(NC1CCN(CCc2c[nH]c3ccccc23)CC1)c1ccccc1`, the melting point was 208 °C.

Work on `O=C(O)c1ccc(OCc2ccccc2)cc1` yielded a melting point of 189 °C.

For `C[Si](C)(C)C#Cc1ccc(C#C[Si](C)(C)C)cc1`, the melting point was 120 °C.

`CN1CCC23C(=O)CC4C(=CCOC5CC(=O)N(c6c(O)cccc62)C3C54)C1` (stereo not drawn) gave a melting point of 282 °C.

For `N[C@H]1CC[C@H](N)CC1`, the melting point was 68 to 71 °C.

In the case of `O=C(O)CNC(=O)CCl`, the melting point is reported as 102 °C.

`ICCCCCI` gave a melting point of 9 °C.

With `O=C(c1ccccc1)c1cnc2ccc(Br)cn2c1=O` the melting point was 208 to 210 °C.

`CCCC(=O)OC(=O)CCC` gave a melting point of -73 °C.

`CC1CC=CC2C3OC3(C)C(C)C3C(Cc4ccccc4)NC(=O)C23OC(=O)OC=CC(C)(O)C1=O` (stereo not drawn) gave a melting point of 206 °C.

Compound `Cc1cccc(OCC(O)CNC(C)C)c1` (stereo not drawn) has a melting point of 76 °C.

Compound `COC1(OC)C2C=C3OC(=O)C1C3(C)O2` (stereo not drawn) has a melting point of 199 to 201 °C.

With `CN1CC(=O)NC1=N` the melting point was 255 °C.

In the case of `CN1CCOc2cc(Br)cnc21`, the melting point is reported as 77 to 79 °C.

In the case of `O=C(O)c1ccc(=O)oc1`, the melting point is reported as 203 to 205 °C.

For `COC(CNC(c1ccccc1)C(O)c1ccccc1)OC` (stereo not drawn), the melting point was 145 °C.

Compound `Cc1cc([N+](=O)[O-])cnc1Cl` has a melting point of 78 to 80 °C.

`CC(C)(C)OC(=O)NC(COC1CCCCO1)CS(=O)(=O)c1ccccc1` (stereo not drawn) gave a melting point of 100 to 104 °C.

`CC(C)OC(=O)[C@H](C)O` gave a melting point of 1 °C.

`OC1COC2C(O)COC12` (stereo not drawn) gave a melting point of 88 °C.

`CN(C(=O)Cl)c1ccccc1` showed a melting point of 88.5 °C.

`COC(=O)CCC(C)C1CCC2C3C=CC4CCCCC4(C)C3CCC12C` (stereo not drawn) showed a melting point of 60 °C.

`C[Si]1(C)O[Si](C)(C)O[Si](C)(C)O[Si](C)(C)O[Si](C)(C)O[Si](C)(C)O[Si](C)(C)O[Si](C)(C)O1` gave a melting point of 31.5 °C.

Compound `Cc1c(C2(c3cc(Br)c(O)c(Br)c3C)OS(=O)(=O)c3ccccc32)cc(Br)c(O)c1Br` has a melting point of 222 °C.

`ClCc1cc(Br)cc2c1OCOC2` showed a melting point of 103 °C.

`S=C(SC(=S)N1CCCCC1)N1CCCCC1` showed a melting point of 110 °C.

Compound `CC(Oc1ccc(Oc2nc3ccc(Cl)cc3o2)cc1)C(=O)O` (stereo not drawn) has a melting point of 158 °C.

Work on `Cc1cc(Cl)c([N+](=O)[O-])cc1[N+](=O)[O-]` yielded a melting point of 90 °C.

Compound `COc1cccc(F)c1C#N` has a melting point of 103 °C.

For `O=C(O)c1cnc(Cl)c(Cl)c1`, the melting point was 163 to 168 °C.

`O=C(Cl)c1ccccc1Cl` gave a melting point of -4 °C.

For `O=Cc1cc(Cl)c(O)c(Cl)c1`, the melting point was 154 to 156 °C.

In the case of `Cc1nc(-c2cc(CO)no2)cs1`, the melting point is reported as 120 °C.

With `N#CC(C#N)=Nc1ccccc1` the melting point was 86 to 87 °C.

`Cc1cc(C(C#N)c2ccc(Cl)cc2)c(Cl)cc1NC(=O)c1cc(I)cc(I)c1O` (stereo not drawn) showed a melting point of 218 °C.

Work on `Cc1ccc(S(=O)(=O)c2ccccc2)cc1` yielded a melting point of 127 °C.

`CC(C)(C)[Si](C)(C)ON` gave a melting point of 64 °C.

For `CC(=O)O[C@@H](C(=O)O)c1ccccc1`, the melting point was 97 °C.

For `O=C(CBr)Oc1ccc([N+](=O)[O-])cc1`, the melting point was 86 °C.

`CCc1ncc[nH]1` gave a melting point of 83 to 87 °C.

`CC(CCC(=O)O)C1CCC2C3CCC4CCCCC4(C)C3CC(O)C12C` (stereo not drawn) showed a melting point of 186 to 188 °C.

For `O=c1c2ccccc2[nH]c(=S)n1-c1ccccc1`, the melting point was 309 to 311 °C.

For `COc1cc([N+](=O)[O-])ccc1C`, the melting point was 69 to 74 °C.

For `Oc1cccc(N2CCOCC2)c1`, the melting point was 136 to 138 °C.

With `CC1(C)OC(=O)C(=Cc2ccccc2F)C(=O)O1` the melting point was 142 °C.

`O=C1OC2(c3cc(Cl)c(O)cc3Oc3cc(O)c(Cl)cc32)c2ccccc21` gave a melting point of 280 °C.

Compound `C[C@H](OC(=O)Nc1ccccc1)C(=O)O` has a melting point of 137 to 142 °C.

Work on `O=C1NC(=O)C(=Cc2ccc(-c3cccc([N+](=O)[O-])c3)o2)C(=O)N1` yielded a melting point of 280 °C.

`COC(=O)c1cc(Cl)cc(Cl)c1` gave a melting point of 59 °C.

`O=C(Nc1ccccc1Br)C(C(F)(F)F)C(F)(F)F` showed a melting point of 183 to 185 °C.

Work on `Nc1nn2c(C(F)(F)F)cc(=O)[nH]c2c1/N=N/c1cccc(F)c1` yielded a melting point of 305 to 306 °C.

`O=C(C1=NOC2C(=O)N(c3ccccc3[N+](=O)[O-])C(=O)C12)c1ccc2ccccc2c1` (stereo not drawn) showed a melting point of 176 °C.

With `N#Cc1nc(C#N)nc(C#N)n1` the melting point was 119 °C.

Work on `Cc1oc(-c2ccccc2)nc1C=O` yielded a melting point of 87 to 88 °C.

For `C[C@]12CCC(=O)C[C@H]1CC[C@@H]1[C@@H]2CC[C@]2(C)CCC[C@@]12O`, the melting point was 139 to 140 °C.

Compound `CCCCCCCCCCCCCCCCCCCCBr` has a melting point of 37.5 °C.

With `O=C(Oc1ccccc1)c1ccc(O)cc1` the melting point was 176 to 178 °C.

Compound `O=[N+]([O-])c1cccc(C=NO)c1` has a melting point of 124 °C.

`Oc1c(Cl)cc(Cl)cc1Sc1cc(Cl)cc(Cl)c1O` gave a melting point of 188 °C.

Compound `CCOC(=O)c1cn[nH]c1NC(=O)Nc1ccc(Cl)cc1` has a melting point of 260 to 261 °C.

For `CC(CN(CC(=O)O)CC(=O)O)N(CC(=O)O)CC(=O)O` (stereo not drawn), the melting point was 241 to 243 °C.

In the case of `COc1cc(C=O)cc([N+](=O)[O-])c1O`, the melting point is reported as 176 °C.

For `O=S(=O)(Cl)Cc1ccccc1Cl`, the melting point was 60 to 62 °C.

`C=CC(=O)NC(CO)(CO)CO` showed a melting point of 136 to 141 °C.

`O=C(Cl)c1ccccc1COc1ccccc1` showed a melting point of 49 to 51 °C.

Compound `CC(CCC(=O)NCC(=O)O)C1CCC2C3C(O)CC4CC(O)CCC4(C)C3CC(O)C12C` (stereo not drawn) has a melting point of 166 °C.

For `C=CC1(C)OC(=O)N(c2cc(Cl)cc(Cl)c2)C1=O` (stereo not drawn), the melting point was 108 °C.

In the case of `Fc1c(F)c(F)c(Sc2c(F)c(F)c(F)c(F)c2F)c(F)c1F`, the melting point is reported as 87 °C.

With `O=S1(=O)CCCCO1` the melting point was 13.5 °C.

`ON=C(c1ccccc1)c1ccc(O)cc1` gave a melting point of 78 °C.

For `CC1CCC2C1C1C(CCC2(C)O)C1(C)C` (stereo not drawn), the melting point was 105 °C.

Work on `CC12C=CC(CC1)C2(C)C` (stereo not drawn) yielded a melting point of 113 °C.

For `CC(NC(CCCNC(=N)N)C(=O)O)C(=O)O` (single isomer, unassigned; (+)), the melting point was 283 to 284 °C.

Work on `CC(C)n1nnc2cc(C(=O)O)ccc21` yielded a melting point of 222 to 227 °C.

Work on `Nc1ccc(Cl)nc1Cl` yielded a melting point of 122 to 123 °C.

For `CCN(CCO)c1ccc(N=Nc2ccc([N+](=O)[O-])cc2)cc1`, the melting point was 161 °C.

Work on `BrCc1ccccc1COc1ccccc1` yielded a melting point of 53 to 59 °C.

`N#Cc1ccc(O)cc1F` showed a melting point of 125 °C.

Work on `OC(C#CC#CC(O)(c1ccccc1)c1ccccc1Cl)(c1ccccc1)c1ccccc1Cl` (single isomer, unassigned; (+)) yielded a melting point of 130 to 133 °C.

`Cc1cc(C)c(O)c([N+](=O)[O-])c1` showed a melting point of 70 °C.

With `O=C(O)CCCn1c(C(F)(F)F)nc2ccccc21` the melting point was 143 to 145 °C.

With `O=C(O)CCC(=O)OOC(=O)CCC(=O)O` the melting point was 127 °C.

With `CCc1cccc([N+](=O)[O-])c1` the melting point was -37.9 °C.

`CC(C)CS` gave a melting point of -145 °C.

Work on `COC(=O)CCC(C)C1CCC2C3C(=O)CC4CCCCC4(C)C3CC(=O)C12C` (stereo not drawn) yielded a melting point of 140 °C.

For `CC1(C)c2ccccc2NC1C(N)=O` (stereo not drawn), the melting point was 168 to 170 °C.

Compound `OCC1OC(OC2C(CO)OC(O)C(O)C2O)C(O)C(O)C1O` (stereo not drawn) has a melting point of 256 to 258 °C.

`O=C(O)C1Cc2ccccc21` (stereo not drawn) gave a melting point of 74 °C.

`Oc1cc(Br)ccc1Cl` showed a melting point of 57 °C.

For `CC1(C)CC(=O)c2cc(-c3ccccc3)n(CCc3ccccc3)c2C1`, the melting point was 113 to 115 °C.

For `CCOc1ccc(C(N)=O)cc1`, the melting point was 209 °C.

`Cc1ccc(C(=O)O)c(C(=O)O)c1` gave a melting point of 146 to 149 °C.

Work on `BrC(=Cc1ccccc1)c1ccc(Br)c2c(Br)cccc12` yielded a melting point of 171 °C.

In the case of `CCCCOc1ccc(/C=N/NC(=O)C(=O)N/N=C/c2ccc(OCCCC)cc2)cc1`, the melting point is reported as 301 to 303 °C.

In the case of `O=C(c1nn2c(nc(=O)c3ccccc32)s1)c1cccc2ccccc12`, the melting point is reported as 241 °C.

For `CC(C)(C)OC(=O)N1CC(O)C1`, the melting point was 40 °C.

Compound `Oc1cccc(Cl)c1O` has a melting point of 48.5 °C.

For `CC(=O)N(C)c1ccc(N)cc1`, the melting point was 70 to 71 °C.

`Cc1nccn1-c1ccc(CN)cc1` gave a melting point of 90.5 to 91.5 °C.

`N#CC(c1ccc(Sc2ccccc2)nn1)c1c(Cl)cccc1Cl` (stereo not drawn) gave a melting point of 190 °C.

`CC(=O)c1occc1O` gave a melting point of 100 °C.

With `Cc1ccc(C(c2ccc(C)o2)c2cc(I)cc(I)c2O)o1` the melting point was 143 °C.

For `O=Nc1c(-c2cccs2)nc2ncccn12`, the melting point was 239 °C.

In the case of `CCOC(=O)c1cc2cc3c4c(c2oc1=O)CCCN4CCC3`, the melting point is reported as 140 to 144 °C.

For `c1ccc(CNCc2ccccc2)cc1`, the melting point was -26 °C.

`Cc1cc(O)c(C(C)(C)C)cc1Sc1cc(C(C)(C)C)c(O)cc1C` showed a melting point of 162 °C.

With `C1CCC(CCCC2CCCCC2)CC1` the melting point was -17 °C.

Compound `CCCCC(=O)c1ccc2c(c1)OCCOCCOc1cc(C(=O)CCCC)ccc1OCCOCCO2` has a melting point of 117 to 133 °C.

`CCc1ccc(O)c(C(C)=O)c1O` showed a melting point of 130 to 131 °C.

`Cc1ccc(N(SC(F)(Cl)Cl)S(=O)(=O)N(C)C)cc1` showed a melting point of 96 °C.

`CN(C)C=Nc1c(I)cc(I)c(CCC(=O)O)c1I` showed a melting point of 168 °C.

In the case of `NC(=O)Cc1nc(-c2ccc([N+](=O)[O-])cc2)cs1`, the melting point is reported as 202 to 203 °C.

In the case of `Nc1ccc(C(F)(F)F)cc1Br`, the melting point is reported as 29.5 °C.

`O=C(O)c1cccc(S(=O)(=O)Nc2ccccc2)c1` showed a melting point of 236 °C.

For `C=C(C)C(=O)OCCC(F)(F)C(F)(F)C(F)(F)C(F)(F)C(F)(F)C(F)(F)C(F)(F)C(F)(F)C(F)(F)C(F)(F)F`, the melting point was 45 to 50 °C.

Compound `FC(F)(F)c1ccc2[nH]c(S)nc2c1` has a melting point of 277 to 279 °C.

With `NC(=O)c1cc(Cl)nc(Cl)c1` the melting point was 202 to 206 °C.

Work on `O=[N+]([O-])c1cccc(-c2nnc3n2CN(c2cccc([N+](=O)[O-])c2)CS3)c1` yielded a melting point of 240 °C.

For `Cc1cc(O)c2c(c1)C(=O)c1cccc(O)c1C2=O`, the melting point was 196 °C.

Work on `O=C(CCl)NCc1ccc2c(c1)OCO2` yielded a melting point of 91.4 to 93.8 °C.

Compound `CC1=CC2OC1C(Cl)(Cl)C(=O)C2(Cl)Cl` (stereo not drawn) has a melting point of 90 to 90.5 °C.

For `N#Cc1cc(I)c(O)c([N+](=O)[O-])c1`, the melting point was 138 °C.

For `CCCCCCCCC=CCCCCCCCC(=O)Nc1ccccc1`, the melting point was 41 °C.
